Where a name gives a salt, the structure may show the parent alone.
Experiments:
[1] = test system: cerebellar granule cells (CGC); experiment: Antiapoptotic capacity (rescue) in cerebellar granule cells induced into apoptosis by cytosine arabinoside (CGC assay); format: cell-based, Wistar rat; conditions: for Rescue by Amino Acids and Esters in the CGC Assay, Rescue (overall yes/no) / Rescue by Amino Nitriles in the CGC Assay, Rescue (overall yes/no) / Rescue by Amino Phosphonic Acids in the CGC Assay, Rescue (overall yes/no) / Rescue by Amino Tetrazoles in the CGC Assay, Rescue (overall yes/no): overall over 10^−6, 10^−9, 10^−12 M
Text: In Vitro Protocol for Assessing the Antiapoptotic Capacity of Various Compounds in Cerebellar Granule Cells
Cultures of cerebellar granule cells (CGC) can be induced into apoptosis by the addition of a high concentration of cytosine arabinoside (AraC). It has been shown that this is a p53 dependent apoptosis. We have measured the antiapoptotic effect of some amino acids, amino esters, amino phosphonic acids, amino nitriles and amino tetrazoles using this system.
Cultures of CGC were obtained from 6-8 day old Wistar rat pups. Cultures were grown on glass in 35 mm petri dishes for three days and then used for experiments. Aliquots (20 ul) of drug solutions (AraC, anti-apoptotic drugs, drug vehicles) were added to the medium of the culture. 24 Hours later the cultures were fixed with FAM, and stained with bis-benzamide. Normal and apoptotic nuclei were counted to a total of 90-120 cells per culture.

[2] = compound 10^−6 M, AraC 300 uM-induced apoptosis, 24 hours
[3] = compound 10^−9 M, AraC 300 uM-induced apoptosis, 24 hours
[4] = compound 10^−12 M, AraC 300 uM-induced apoptosis, 24 hours

Molecule: CCOC(=O)CNC(C)C (as salt: hydrochloride)
- melting point: 120 to 121 °C

Molecule: CCCCC[C@@H](C)N(C)CCC(=O)O.Cl [R-2-Heptyl-N-methyl (B-Alanines), (R)-3-(2-Heptylmethylamino)propionic acid hydrochloride]
- Rescue by Amino Acids and Esters in the CGC Assay, 10^−6 M [1, 2]: R
- Rescue by Amino Acids and Esters in the CGC Assay, 10^−9 M [1, 3]: R
- Rescue by Amino Acids and Esters in the CGC Assay, 10^−12 M [1, 4]: R
- Rescue by Amino Acids and Esters in the CGC Assay, Rescue (overall yes/no) [1]: yes

Molecule: CCCCCC(C)N(C)CCC#N (stereo in doubt) [R-2-Heptyl-N-methyl (Propionitriles), (R)-3-(2-Heptylmethylamino)propionitrile hydrochloride]
- Rescue by Amino Nitriles in the CGC Assay, 10^−9 M [1, 3]: R
- Rescue by Amino Nitriles in the CGC Assay, Rescue (overall yes/no) [1]: yes

Molecule: CCCCCCNCCP(=O)(O)O.Cl [1-Hexyl (Amino Phosphonic Acids), 2-(1-Hexylamino)ethanephosphonic acid hydrochloride]
- Rescue by Amino Phosphonic Acids in the CGC Assay, Rescue (overall yes/no) [1]: no

Molecule: CCCCCCNCC(=O)O.Cl [1-Hexyl (Glycines), 2-(1-Hexylamino)acetic acid hydrochloride]
- Rescue by Amino Acids and Esters in the CGC Assay, 10^−9 M [1, 3]: R
- Rescue by Amino Acids and Esters in the CGC Assay, Rescue (overall yes/no) [1]: yes

Molecule: CCCCC[C@H](C)NCCP(=O)(O)O.Cl [S-2-Heptyl (Amino Phosphonic Acids), (S)-2-(2-Heptylamino)ethanephosphonic acid hydrochloride]
- Rescue by Amino Phosphonic Acids in the CGC Assay, 10^−9 M [1, 3]: R
- Rescue by Amino Phosphonic Acids in the CGC Assay, 10^−12 M [1, 4]: R
- Rescue by Amino Phosphonic Acids in the CGC Assay, Rescue (overall yes/no) [1]: yes

Molecule: CCCCC[C@H](C)NCC(=O)O.Cl [S-2-Heptyl (Glycines), (S)-2-(2-Heptylamino)acetic acid hydrochloride]
- Rescue by Amino Acids and Esters in the CGC Assay, 10^−6 M [1, 2]: R
- Rescue by Amino Acids and Esters in the CGC Assay, 10^−9 M [1, 3]: R
- Rescue by Amino Acids and Esters in the CGC Assay, 10^−12 M [1, 4]: R
- Rescue by Amino Acids and Esters in the CGC Assay, Rescue (overall yes/no) [1]: yes

Molecule: CCCCCC(C)NCC(=O)O (stereo in doubt) [R-2-Heptyl (Glycines), (R)-2-(2-Heptylamino)acetic acid hydrochloride]
- Rescue by Amino Acids and Esters in the CGC Assay, Rescue (overall yes/no) [1]: no

Molecule: CCCCCC(C)NCCc1nnn[nH]1 (stereo in doubt) [R-2-Heptyl (Amino Tetrazoles), (R)-2-(2-Heptylamino)ethane-5-tetrazole hydrochloride]
- Rescue by Amino Tetrazoles in the CGC Assay, 10^−6 M [1, 2]: R
- Rescue by Amino Tetrazoles in the CGC Assay, 10^−9 M [1, 3]: R
- Rescue by Amino Tetrazoles in the CGC Assay, 10^−12 M [1, 4]: R
- Rescue by Amino Tetrazoles in the CGC Assay, Rescue (overall yes/no) [1]: yes

Molecule: CCCCCCNCCC(=O)OC [1-Hexyl (B-Alaninates), Methyl 3-(1-hexylamino)propionate hydrochloride]
- Rescue by Amino Acids and Esters in the CGC Assay, 10^−9 M [1, 3]: R
- Rescue by Amino Acids and Esters in the CGC Assay, 10^−12 M [1, 4]: R
- Rescue by Amino Acids and Esters in the CGC Assay, Rescue (overall yes/no) [1]: yes

Molecule: CCCCCC(C)NCCC#N (stereo in doubt) [R-2-Heptyl (Propionitriles), (R)-3-(2-Heptylamino)propionitrile hydrochloride]
- Rescue by Amino Nitriles in the CGC Assay, 10^−9 M [1, 3]: R
- Rescue by Amino Nitriles in the CGC Assay, 10^−12 M [1, 4]: R
- Rescue by Amino Nitriles in the CGC Assay, Rescue (overall yes/no) [1]: yes

Molecule: CCCCCCNCC#N.Cl [1-Hexyl (Acetonitriles), 2-(1-Hexylamino)acetonitrile hydrochloride]
- Rescue by Amino Nitriles in the CGC Assay, 10^−9 M [1, 3]: R
- Rescue by Amino Nitriles in the CGC Assay, 10^−12 M [1, 4]: R
- Rescue by Amino Nitriles in the CGC Assay, Rescue (overall yes/no) [1]: yes

Molecule: CCC[C@@H](C)NCC#N [R-2-Pentyl (Acetonitriles), (R)-2-(2-Pentylamino)acetonitrile]
- Rescue by Amino Nitriles in the CGC Assay, 10^−9 M [1, 3]: R
- Rescue by Amino Nitriles in the CGC Assay, Rescue (overall yes/no) [1]: yes

Molecule: (S)-2-(2-Heptylamino)ethane-5-tetrazole hydrochloride [S-2-Heptyl (Amino Tetrazoles)]
- Rescue by Amino Tetrazoles in the CGC Assay, Rescue (overall yes/no) [1]: no

Molecule: CCCCCC(C)NCCC(=O)O (stereo in doubt) (as salt: hydrochloride) [R-2-Heptyl (B-Alanines), (R)-3-(2-Heptylamino)propionic acid hydrochloride]
- melting point: 57 to 58 °C

Molecule: CCCCC[C@H](C)NCCC(=O)OC (stereo in doubt) (as salt: hydrochloride)
- melting point: 89.5 to 90.5 °C

Molecule: CCCCCC(C)NCCC#N (stereo in doubt) (as salt: hydrochloride) [R-2-Heptyl (Propionitriles), (R)-3-(2-Heptylamino)propionitrile hydrochloride]
- melting point: 134 to 135 °C

Molecule: CCCCCC(C)NCCC(=O)O (stereo in doubt) [R-2-Heptyl (B-Alanines), (R)-3-(2-Heptylamino)propionic acid hydrochloride]
- Rescue by Amino Acids and Esters in the CGC Assay, 10^−9 M [1, 3]: R
- Rescue by Amino Acids and Esters in the CGC Assay, 10^−12 M [1, 4]: R
- Rescue by Amino Acids and Esters in the CGC Assay, Rescue (overall yes/no) [1]: yes

Molecule: CCCCC[C@@H](C)N(C)CCC(=O)OC.Cl [R-2-Heptyl-N-methyl (B-Alaninates), (R)-Methyl 3-(2-heptylmethylamino)propionate hydrochloride]
- Rescue by Amino Acids and Esters in the CGC Assay, 10^−6 M [1, 2]: R
- Rescue by Amino Acids and Esters in the CGC Assay, 10^−9 M [1, 3]: R
- Rescue by Amino Acids and Esters in the CGC Assay, 10^−12 M [1, 4]: R
- Rescue by Amino Acids and Esters in the CGC Assay, Rescue (overall yes/no) [1]: yes

Molecule: CCCCCC(C)NCC#N (stereo in doubt) [R-2-heptyl (Acetonitriles), (R)-2-(2-Heptylamino)acetonitrile hydrochloride]
- Rescue by Amino Nitriles in the CGC Assay, Rescue (overall yes/no) [1]: no

Molecule: CCCCCC(C)NCC#N (stereo in doubt) (as salt: hydrochloride) [R-2-heptyl (Acetonitriles), (R)-2-(2-Heptylamino)acetonitrile hydrochloride]
- melting point: 152 to 153 °C

Molecule: CCC[C@@H](C)NCCP(=O)(O)O [R-2-Pentyl (Amino Phosphonic Acids), (R)-2-(2-Pentylamino)ethanephosphonic acid]
- Rescue by Amino Phosphonic Acids in the CGC Assay, 10^−6 M [1, 2]: R
- Rescue by Amino Phosphonic Acids in the CGC Assay, Rescue (overall yes/no) [1]: yes

Molecule: CCCCC[C@@H](C)NCCP(=O)(O)O.Cl [R-2-Heptyl (Amino Phosphonic Acids), (R)-2-(2-Heptylamino)ethanephosphonic acid hydrochloride]
- Rescue by Amino Phosphonic Acids in the CGC Assay, Rescue (overall yes/no) [1]: yes*

Molecule: CC(C)N(C)CCC(=O)O [2-Propyl-N-methyl (B-Alanines), 3-(2-Propylmethylamino)propionic acid]
- Rescue by Amino Acids and Esters in the CGC Assay, 10^−6 M [1, 2]: R
- Rescue by Amino Acids and Esters in the CGC Assay, 10^−9 M [1, 3]: R
- Rescue by Amino Acids and Esters in the CGC Assay, Rescue (overall yes/no) [1]: yes

Molecule: COC(=O)CCNC(C)C.Cl [2-Propyl (B-Alaninates), Methyl 3-(2-propylamino)propionate hydrochloride]
- Rescue by Amino Acids and Esters in the CGC Assay, Rescue (overall yes/no) [1]: no

Molecule: CC(C)NCCC#N.Cl [2-Propyl (Propionitriles), 3-(2-Propylamino)propionitrile hydrochloride]
- Rescue by Amino Nitriles in the CGC Assay, Rescue (overall yes/no) [1]: no

Molecule: CC(C)NCC(=O)O.Cl [2-Propyl (Glycines), 2-(2-Propylamino)acetic acid hydrochloride]
- Rescue by Amino Acids and Esters in the CGC Assay, 10^−6 M [1, 2]: R
- Rescue by Amino Acids and Esters in the CGC Assay, Rescue (overall yes/no) [1]: yes

Molecule: CCCCCC(C)N(C)CCC#N (stereo in doubt) (as salt: hydrochloride) [R-2-Heptyl-N-methyl (Propionitriles), (R)-3-(2-Heptylmethylamino)propionitrile hydrochloride]
- melting point: 98 to 98.5 °C

From patent US6984754B1, “Aliphatic amino carboxylic and amino phosphonic acids amino nitriles and amino tetrazoles as cellular rescue agents” (University of Saskatchewan Technologies Inc., priority 1998, dated 2006)
